Values quoted from earlier work as cited in publication PMC12284023, “Metabolomic and chemometric profiling of crimson grapes during drying and its impact on antidiabetic activity” (NPJ Science of Food, 2025).
≈ marks a conversion by molar mass, not a printed value.

Legend:
α-glucosidase enzyme = target: α-glucosidase enzyme; parameters: method as in ref 56 = [56]; 56. Cásedas G Cyanidin-3-O-glucoside inhibits different enzymes involved in central nervous system pathologies and type-2 diabetes South Afr. J. Bot. 2019 120 241 246 Cásedas, G. et al. Cyanidin-3-O-g; conditions: read-out: IC50 against α-glucosidase enzyme
[1] = test system: streptozotocin-induced diabetic mouse; parameters: method as in ref 57 = [57]; 57. Choi K Choi S-I Park MH Han J-S Cyanidin-3-O-glucoside ameliorates postprandial hyperglycemia in diabetic mice J. Life Sci. 2017 27 32 37 Choi, K., Choi, S.-I., Park, M. H. & Han, J.-S. Cyanidin-3; conditions: oral administration of soluble starch with compound, streptozotocin-induced diabetic mouse ref 57
pancreatic lipase = target: pancreatic lipase; parameters: method as in PMID 26284613; conditions: in vitro, dose-dependent ref 61
[2] = test system: streptozotocin-induced diabetic rats; parameters: method as in PMID 35932369; conditions: streptozotocin-induced diabetic rats ref 62
[3] = test system: streptozotocin-injected rat; parameters: method as in PMID 32446112; conditions: via suppressing uric acid, plasma glucose, triglyceride, total cholesterol, creatinine, IL-6, TNF-α, MCP-1 levels ref 60
diabetic mice = test system: diabetic mice; parameters: method as in ref 58 = [58]; 58. Ding H Blood glucose-lowering activity of protocatechuic acid is mediated by inhibiting α-glucosidase Food Sci. Hum. Wellness 2024 13 1212 1219 Ding, H. et al. Blood glucose-lowering activity of p; conditions: diabetic mice ref 58
[4] = test system: glycation products such as 5-hydroxymethylfurfural, fructosamine, and advanced glycation end products; parameters: method as in ref 58 = [58]; 58. Ding H Blood glucose-lowering activity of protocatechuic acid is mediated by inhibiting α-glucosidase Food Sci. Hum. Wellness 2024 13 1212 1219 Ding, H. et al. Blood glucose-lowering activity of p; conditions: advanced glycation end products ref 58

OC[C@H]1O[C@@H](Oc2cc3c(O)cc(O)cc3[o+]c2-c2ccc(O)c(O)c2)[C@H](O)[C@@H](O)[C@@H]1O [Cyanidin-3-O-glucoside]
IC50 (α-glucosidase enzyme): 480 µM
levels of postprandial blood glucose [1]: significantly decreased

O=c1ccc2cc(O[C@@H]3O[C@H](CO)[C@@H](O)[C@H](O)[C@H]3O)c(O)cc2o1 [Esculin]
IC50 pancreatic lipase inhibition (pancreatic lipase): 11.6 ± 0.92 µg/mL (≈ 34.1 µM)

CC(C)(C)[C@]1(O)CC2OC(=O)CC23C(=O)OC2OC(=O)[C@H](O)C231 (some centres unmarked) [bilobalide, Bilobalide]
anti-retinopathy activity [2]: exhibited anti-retinopathy activity
blood glucose levels [2]: decreased blood glucose levels

CC(C)[C@@H](C)/C=C/[C@@H](C)[C@H]1CC[C@H]2C3=CC=C4C[C@@H](O)CC[C@]4(C)[C@H]3CC[C@]12C [ergosterol, Ergosterol]
diabetic nephropathy [3]: attenuated diabetic nephropathy

O=C(O)c1ccc(O)c(O)c1 [protocatechuic acid]
postprandial hypoglycemic activity (diabetic mice): acclaimed postprandial hypoglycemic activity

O=C(O)[C@H]1O[C@@H](Oc2c(-c3ccc(O)c(O)c3)oc3cc(O)cc(O)c3c2=O)[C@H](O)[C@@H](O)[C@@H]1O [quercetin-3-O-glucuronide, Quercetin-3-O-glucuronide]
suppression of glycation products [4]: effectively suppressed
